The subject of one series is MDA-MB-453. Kind of series: Cytotoxicity assay of Au/LKs/Dox complexes (MTS, 72 hours). Type of series: cell-based. The following applies: Homo sapiens; MDA-MB-453, 72 hrs; read-out: IC50 value for complex cytotoxicity. On the procedure:
(§1) We examined the cytotoxicity of Au/LKs/Dox complexes and the IC50 value was calculated. […] The CellTiter 96® AQueous One Solution Cell Proliferation Assay (MTS) reagent was purchased from Promega (Madison, Wis., USA) and the assay was performed according to the manufacturer's instructions. Absorbance was measured at 490 nm using a microplate reader (Bio-tek, Powerwave X340, Winooski, Vt., USA).

Test in series [1]: as above
The following applies: human, H184B5F5/M10 mammary epithelial cells; M10, 72 hrs; read-out: IC50 value for complex cytotoxicity. Type of series: cell-based. On the procedure:
as §1

Another series has as its system MDA-MB-231 breast tumors. Kind of series: MDA-MB-231 breast tumor xenograft efficacy study. Type of series: in vivo, BALB/c-nu/nu mice. An excerpt: FIG. 6 (A) to (D) show the treatment of MDA-MB-231 breast tumors. (A) Net animal weight change (g) during the treatment. From the data, doxorubicin and Au/LKI-1/Dox was cause the weight loss over 20% and 3% in nude mice (N=3), respectively. […] (B) The inhibition of MDA-MD-231 breast tumor growth (N=3): Dox>Au/LKI-1/Dox>Au/PEG=PBS. (C) TEM images of MDA-MB-231 breast tumor cells treated with Au/LKI-1/Dox complex was easy determined the Au/LKI-1/Dox complex in the tumor in xenograft model. (D) Immunohistochemistry of tumor specimens. Breast tumor specimens were taken from the mice, embedded in paraffin and stained with hematoxylineosin.
BALB/c-nu/nu mice were purchased from BioLASCO Taiwan. Eight week old male mice were injected unilaterally with 1.0×10^7 MDA-MB-231 breast tumor cells in 200 μL of 50:50 Matrigel/Leibovitz's (L-15) into the dorsum by subcutaneous injection. (1) Vehicle-PBS (negative control), (2) Doxorubicin (positive control), 5 mg/kg, (3) Au/PEG, (4) Au/LKI-1/Dox complex, 5 mg/kg of Dox. Treatment was ongoing until clinical symptoms necessitated sacrifice. Mice were weighed a minimum of two times/weekly and were monitored tumor size until clinical symptoms necessitated sacrifice (see FIG. 6A, 6B). TEM images of MDA-MB-231 breast tumor cells treated with Au/LKI-1/Dox complex in xenograft model. […] (see FIG. 6C) H&E stain of MDA-MB-231 tumor cells treated with Au/LKI-1/Dox complex in xenograft model. (see FIG. 6D)

A short description of series [2]: in vitro. Particulars: human, H184B5F5/M10 mammary epithelial cells.
Description: (§2) After took photos, cells were counted by using hemocytometer.
Series [3] can be described thus: in vitro. The following applies: human, MDA-MB-453 breast adenocarcinoma cells.
Description: as §2
Series [4] can be described thus: in vitro. The following applies: human, MCF7 breast adenocarcinoma cells.
Description: as §2
Series [5] in a line: in vitro. The following applies: human, MDA-MB-231 breast adenocarcinoma cells.
Description: as §2
Another series concerns the target TNFα (Homo sapiens, UniProt P01375). Put plainly: Blocking of TNFα-induced MCF-7 cell apoptosis (MTS). Type of series: cell-based. Particulars: for Relative cell survival %: TNFα 12.5 ng/mL, MCF-7, 72 hours. On the procedure: We further examined Au/LKI-1/ETA complex by binding with secondary antibody conjugated with 1-5 nm AuNPs. In TEM images of Au/LKI-1/ETA complex, binding of 1-5 nm gold-labeled secondary anti-human IgG antibodies to ETA located on the AuNP surface was observed (FIG. 4C). We further investigated the TNFα blocking ability of ETA and Au/LKI-1/ETA. MCF-7 cells (5×10^5) were treated with the mixtures of 12.5 ng/mL TNFα and 62.5, 125, 250, 500 ng/mL ETA or Au/LKI-1/ETA complex for 2 hours, respectively. The treated cells were incubated at 37° C. for 72 hours and then the cell numbers were counted by MTS [(3-(4,5-dimethylthiazol-2-yl)-5-(3-carboxymethoxyphenyl)-2-(4-sulfophenyl)-2H-tetrazolium)] assay. […] ETA and Au/LKI-1/ETA complex were used to test their abilities in blocking TNFα induced MCF-7 cell apoptosis, Table 4.

TNFα, sequence (P01375 77-233 limits assumed, species assumed): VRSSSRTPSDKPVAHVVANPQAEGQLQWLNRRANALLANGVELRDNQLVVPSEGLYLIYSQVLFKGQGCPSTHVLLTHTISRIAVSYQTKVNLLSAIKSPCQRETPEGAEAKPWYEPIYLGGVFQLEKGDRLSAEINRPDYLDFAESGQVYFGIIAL

Take `COc1cccc2c1C(=O)c1c(O)c3c(c(O)c1C2=O)C[C@@](O)(C(=O)CO)C[C@@H]3O[C@H]1C[C@H](N)[C@H](O)[C@H](C)O1` [Dox, doxorubicin]: the IC50 in the series with MDA-MB-453 came to 0.65 ± 0.072 µM. The 50% inhibitory concentration (IC50) at 72 h in series [1] was 0.14 ± 0.034 µM. Further, the “inhibition of MDA-MB-231 breast tumor growth (rank order)” value in the series with MDA-MB-231 breast tumors (N=3, 5 mg/kg of Dox) is reported as “Dox>Au/LKI-1/Dox>Au/PEG=PBS”. Further, in the series on MDA-MB-231 breast tumors (nude mice (N=3), 5 mg/kg of Dox), the “weight loss during the treatment” value is recorded as “over 20%”. For the same compound, the “necrosis in tumor specimens (hematoxylin-eosin)” value in the series on MDA-MB-231 breast tumors (xenograft tumors) is “more necrosis”.
On to `NNC(=O)OCCOCCNC(=O)CCCCC1CCSS1` (centres unmarked) [Linker I-1], for which the IC50 at 72 h in “in vitro [2]” was determined as 584 ± 62.7 µM; in “in vitro [3]”, 299 ± 23 µM; in “in vitro [4]”, 692 ± 51.9 µM; in “in vitro [5]” it was 529 ± 52.1 µM.
The corresponding values for `NNC(=O)OCCNC(=O)CCCCC1CCSS1` (centres unmarked) [Linker I-2] are 686 ± 105 µM, 432 ± 96.6 µM, 730 ± 36.7 µM and 536 ± 21.6 µM.
The corresponding values for `NNC(=O)OCCOCCOCCNC(=O)CCCCC1CCSS1` (centres unmarked) [Linker I-3] are 555 ± 33.5 µM, 333 ± 9.8 µM, 538 ± 39.6 µM and 454 ± 142 µM.
As to `NNC(=O)OCCOCCOCCOCCNC(=O)CCCCC1CCSS1` (centres unmarked) [Linker I-4], the IC50 at 72 h came out at 560 ± 45.1 µM in the series “in vitro [2]”, 342 ± 11 µM in “in vitro [3]”, 569 ± 14.1 µM in the series “in vitro [4]” and 576 ± 81.9 µM in “in vitro [5]”.
`NNC(=O)OCCOCCOCCOCCOCCOCCNC(=O)CCCCC1CCSS1` (centres unmarked) [Linker I-5]: the IC50 at 72 h amounted to 569 ± 54.7 µM in “in vitro [2]”, 460 ± 87.9 µM in “in vitro [3]”, 419 ± 23.8 µM in the series “in vitro [4]” and 484 ± 64.6 µM in “in vitro [5]”.
The matching figures for `NNC(=O)OCCNC(=O)CNC(=O)CCCCC1CCSS1` (centres unmarked) [Linker II-1]: 500 µM, greater than 800 µM, 501 µM and 474 µM.
The matching figures for `NNC(=O)OCCNC(=O)CNC(=O)CNC(=O)CCCCC1CCSS1` (centres unmarked) [Linker II-2]: greater than 800 µM, greater than 800 µM, greater than 800 µM and greater than 800 µM.
Turning to `NNC(=O)OCCNC(=O)CNC(=O)CNC(=O)CNC(=O)CCCCC1CCSS1` (centres unmarked) [Linker II-3], the IC50 at 72 h was 585 ± 132 µM in the series “in vitro [2]”, greater than 800 µM in the series “in vitro [3]”, greater than 800 µM in the series “in vitro [4]” and 428 ± 116 µM in the series “in vitro [5]”.
Regarding `NNC(=O)OCCOCCNC(=O)CCCCCS` [Linker SHI-1], the IC50 at 72 h in the series “in vitro [2]” was greater than 800 µM; in the series “in vitro [3]”, 128 ± 15.1 µM; in “in vitro [4]”, greater than 800 µM; in the series “in vitro [5]”, 559 ± 23.3 µM.
For `NNC(=O)OCCOCCOCCOCCNC(=O)CCCCCS` [Linker SHI-4], the IC50 at 72 h is greater than 800 µM in the series “in vitro [2]”, 130 ± 13.4 µM in “in vitro [3]”, greater than 800 µM in the series “in vitro [4]” and 533 ± 63.9 µM in “in vitro [5]”.
On to Etanercept, for which the TNFα blocking ability result at TNFα (MCF-7 cells) is recorded as “TNFα blocking ability was observed”. Further, the “Relative cell survival %” value on TNFα (dose 62.5 ng/mL) is 36.7 ± 1.4%; on TNFα (dose 125 ng/mL), 68.5 ± 2.3%; on TNFα (dose 250 ng/mL), 82.1 ± 6.5%; at TNFα (dose 500 ng/mL) it was 103.3 ± 0.9%.

What is called IC50 is the concentration that gives 50% inhibition.
